Experiments:
sixty human tumour cells = assay: NCI in vitro cytotoxicity, SRB assay, mean graph midpoints; assay type: cell-based; conditions: 48 h continuous drug exposure, human tumour cell lines
Procedure: (§1) In vitro biological activity studies were carried out at National Cancer Institute (USA).
(§2) Compounds Ve and Vg were evaluated the primary anti-cancer activity (Table 1) and further Ve have been evaluated in vitro against sixty human tumour cells derived from nine cancer types (leukemia, non-small-cell lung, colon, CNS, melanoma, ovarian, prostate, and breast cancer). For each compound, dose response curves for each cell line were measured at a minimum of five concentrations at 10 fold dilutions. A protocol of 48 h continuous drug exposure was used and a sulforhodamine B (SRB) protein assay was used to estimate cell viability or growth. The concentration causing 50% cell growth inhibition (GI50), total cell growth inhibition (TGI 0% growth) and 50% cell death (LC50, −50% growth) compared with the control was calculated.

MCF7 (Breast) = assay: In vitro one dose primary anticancer assay (NCI); assay type: cell-based, human; conditions: one dose at 10^−4 molar concentration
Procedure: as §1, §2

NCI-H460 (Lung) = assay: In vitro one dose primary anticancer assay (NCI); assay type: cell-based, human; conditions: one dose at 10^−4 molar concentration
Procedure: as §1, §2

SF-268 (CNS) = assay: In vitro one dose primary anticancer assay (NCI); assay type: cell-based, human; conditions: one dose at 10^−4 molar concentration
Procedure: as §1, §2

SMILES	Log10 TGI mean graph midpoint (MG_MID) (sixty human tumour cells)	Growth percentages (Breast) MCF7 (MCF7 (Breast)) [%]	Growth percentages (Lung) NCI-H460 (NCI-H460 (Lung)) [%]	Growth percentages (CNS) SF-268 (SF-268 (CNS)) [%]
COc1cc2c(cc1OCCCC(=O)Nc1ccc3ccc4cccc5ccc1c3c45)N=C[C@@H]1CCCN1C2=O [Ve, 7-Methoxy-8-[N-(1″-pyrenyl)-propane-3′-carboxamide]-oxy-(11aS)-1,2,3,11a tetra-hydro-5H-pyrrolo[2,1-c][1,4]benzodiazepin-5-one]	−6.89	31	11	70
COc1cc2c(cc1OCCCCC(=O)Nc1ccc3ccc4cccc5ccc1c3c45)N=C[C@@H]1CCCN1C2=O [Vg, 7-Methoxy-8-[N-(1″-pyrenyl)-butane-4′-carboxamide]-oxy-(11aS)-1,2,3,11a-tetra-hydro-5H-pyrrolo[2,1-c][1,4]benzodiazepin-5-one]		72	106	131

From US6800622B1, “Pyrene-linked pyrrolo[2,1-c][1,4]benzodiazepine hybrids useful as anti-cancer agents” (Council of Scientific and Industrial Research, priority 2003, dated 2004)
